# Key:
# STAT6 = molecular target: T1, STAT6 (Homo sapiens, UniProt P42226); test: STAT6 Reporter Luciferase Assay (IL-13 stimulated HaCaT keratinocyte NanoLuc reporter cells); format: cell-based; settings: IL-13 stimulated HaCaT STAT6 NanoLuc reporter cells; read-out: Reporter EC50
# T1 construct: stably transfected HaCaT keratinocyte cell line, which expresses NanoLuc luciferase reporter gene under the transcriptional control of the STAT6 responsive promoter; endogenous in cells; host or cells: HaCaT keratinocyte reporter cell line (stably transfected with a NanoLuc reporter)
# T1 sequence (P42226 1-847): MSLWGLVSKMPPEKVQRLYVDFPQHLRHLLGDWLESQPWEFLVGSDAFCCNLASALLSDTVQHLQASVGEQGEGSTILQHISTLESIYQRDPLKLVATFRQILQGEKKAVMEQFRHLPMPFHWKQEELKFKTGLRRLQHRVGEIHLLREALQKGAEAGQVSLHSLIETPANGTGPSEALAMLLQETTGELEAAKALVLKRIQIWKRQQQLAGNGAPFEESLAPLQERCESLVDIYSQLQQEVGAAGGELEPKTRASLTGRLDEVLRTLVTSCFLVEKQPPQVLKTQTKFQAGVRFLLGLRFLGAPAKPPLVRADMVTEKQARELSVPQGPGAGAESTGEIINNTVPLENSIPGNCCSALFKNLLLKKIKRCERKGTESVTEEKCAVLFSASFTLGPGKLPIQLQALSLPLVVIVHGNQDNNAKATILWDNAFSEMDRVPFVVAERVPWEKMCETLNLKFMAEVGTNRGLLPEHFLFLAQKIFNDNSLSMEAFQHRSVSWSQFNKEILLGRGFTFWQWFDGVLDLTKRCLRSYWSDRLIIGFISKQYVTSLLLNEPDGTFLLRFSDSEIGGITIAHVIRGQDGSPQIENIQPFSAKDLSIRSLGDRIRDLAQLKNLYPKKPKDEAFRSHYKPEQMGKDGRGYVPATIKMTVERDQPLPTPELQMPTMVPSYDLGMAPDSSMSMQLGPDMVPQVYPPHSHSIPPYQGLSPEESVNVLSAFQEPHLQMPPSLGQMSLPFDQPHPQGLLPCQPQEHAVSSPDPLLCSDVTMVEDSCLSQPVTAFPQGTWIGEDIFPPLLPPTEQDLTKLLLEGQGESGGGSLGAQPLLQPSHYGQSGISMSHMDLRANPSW
# Summary of the method: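 Stably transfected HaCaT cells carrying NanoLuc under the STAT6-responsive IL-13Ra2 promoter were pre-treated with compound (11-point, 4-fold series, duplicate) for 2 h at 37 °C, then stimulated with 0.12 nM IL-13 for 4 h. Nano-Glo luminescence was read after 15 min.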
# [1] = system: CCL17 secretion in peripheral human whole blood; test: Human Whole Blood (HWB) CCL17 TR-FRET Assay (IL-13 stimulated CCL17 secretion); format: cell-based; settings: Homo sapiens, 48 h, human whole blood, IL-13 stimulated
# Summary of the method: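 Heparin-anticoagulated human blood; cpd 11-pt 3-fold dilution, duplicate, 2 h 37 °C preinc; IL-13 10 ng/mL final, 48 h 37 °C; spin, serum CCL17 by TR-FRET ELISA, 16 h RT, 665/615 ratio; IC50.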
SMILES,EC50 (STAT6) [nM],IC50 [1] [nM]
"COc1ccc2c(n1)CN(C(=O)c1ccc(N3CCc4c(c(C(=O)NCc5ccc(NC(=O)N(C)C)cc5)nn4C(C)C)C3)nc1)CC2 [Example 443, N-(4-(3,3-dimethylureido)benzyl)-1-isopropyl-5-(5-(2-methoxy-5,6,7,8-tetrahydro-1,7-naphthyridine-7-carbonyl)pyridin-2-yl)-4,5,6,7-tetrahydro-1H-pyrazolo[4,3-c]pyridine-3-carboxamide]",11,878
"CC(C)n1nc(C(=O)NCc2ccc(N)cc2)c2c1[C@@H](C)CN(c1ccc(C(=O)N(C)C)cn1)C2 [Example 450, (S)-N-(4-aminobenzyl)-5-(5-(dimethylcarbamoyl)pyridin-2-yl)-1-isopropyl-7-methyl-4,5,6,7-tetrahydro-1H-pyrazolo[4,3-c]pyridine-3-carboxamide]",21,93
"CC(C)n1nc(C(=O)NCc2ccc(-c3ncc[nH]3)cc2)c2c1C[C@H](C)N(c1ncc(C(=O)N(C)C)cn1)C2 [Example 451, (S)-N-(4-(1H-imidazol-2-yl)benzyl)-5-(5-(dimethylcarbamoyl)pyrimidin-2-yl)-1-isopropyl-6-methyl-4,5,6,7-tetrahydro-1H-pyrazolo[4,3-c]pyridine-3-carboxamide]",3,47
"CC(C)n1nc(C(=O)NCc2ccc(NC(=O)N(C)C)cc2)c2c1C[C@H](C)N(c1ncc(C(=O)N(C)C)cn1)C2 [Example 452, (S)-5-(5-(dimethylcarbamoyl)pyrimidin-2-yl)-N-(4-(3,3-dimethylureido)benzyl)-1-isopropyl-6-methyl-4,5,6,7-tetrahydro-1H-pyrazolo[4,3-c]pyridine-3-carboxamide]",3,16
"CNC(=O)Nc1ccc(CNC(=O)c2nn(C(C)C)c3c2CN(c2ccc(C(N)=O)cn2)CC3)cc1 [Example 453, 5-(5-carbamoylpyridin-2-yl)-1-isopropyl-N-(4-(3-methylureido)benzyl)-4,5,6,7-tetrahydro-1H-pyrazolo[4,3-c]pyridine-3-carboxamide]",2150,12100

# Further lines, results first:
EC50 (STAT6) [nM],IC50 [1] [nM],SMILES
128,720,"CNC(=O)Nc1ccc(CNC(=O)c2nn(C(C)C)c3c2CN(c2ccc(C(=O)NC)cn2)CC3)cc1 [Example 454, 1-isopropyl-5-(5-(methylcarbamoyl)pyridin-2-yl)-N-(4-(3-methylureido)benzyl)-4,5,6,7-tetrahydro-1H-pyrazolo[4,3-c]pyridine-3-carboxamide]"
742,579,"CNC(=O)c1ccc(N2CCc3c(c(C(=O)NCc4ccc(NC(N)=O)cc4)nn3C(C)C)C2)nc1 [Example 456, 1-isopropyl-5-(5-(methylcarbamoyl)pyridin-2-yl)-N-(4-ureidobenzyl)-4,5,6,7-tetrahydro-1H-pyrazolo[4,3-c]pyridine-3-carboxamide]"
5960,5010,"CC(C)n1nc(C(=O)NCc2ccc(NC(N)=O)cc2)c2c1CCN(c1ccc(C(N)=O)cn1)C2 [Example 457, 5-(5-carbamoylpyridin-2-yl)-1-isopropyl-N-(4-ureidobenzyl)-4,5,6,7-tetrahydro-1H-pyrazolo[4,3-c]pyridine-3-carboxamide]"
173,> 7650,"CC(C)n1nc(C(=O)Nc2cccc(C(N)=O)c2F)c2c1[C@@H](C)CN(c1ccc(C(=O)N(C)C)cn1)C2 [Example 458, (S)-N-(3-carbamoyl-2-fluorophenyl)-5-(5-(dimethylcarbamoyl)pyridin-2-yl)-1-isopropyl-7-methyl-4,5,6,7-tetrahydro-1H-pyrazolo[4,3-c]pyridine-3-carboxamide]"
2,18,"Cc1nn(C)c(=O)n1-c1ccc(N2Cc3c(C(=O)NCc4ccc(NC(=O)N(C)C)cc4)nn(C(C)C)c3[C@@H](C)C2)nc1 [Example 466, (S)-5-(5-(1,3-dimethyl-5-oxo-1,5-dihydro-4H-1,2,4-triazol-4-yl)pyridin-2-yl)-N-(4-(3,3-dimethylureido)benzyl)-1-isopropyl-7-methyl-4,5,6,7-tetrahydro-1H-pyrazolo[4,3-c]pyridine-3-carboxamide]"
